Measured values as given in the supplement of paper PMC10307832.

Assays:
Assay in all cases: relative viability (nuclei count vs DMSO), 5 days (fraction); higher = more cells survive
Crizotinib + Foretinib = compound: C[C@@H](Oc1cc(-c2cnn(C3CCNCC3)c2)cnc1N)c1c(Cl)ccc(F)c1Cl [Crizotinib] + COc1cc2c(Oc3ccc(NC(=O)C4(C(=O)Nc5ccc(F)cc5)CC4)cc3F)ccnc2cc1OCCCN1CCOCC1 [Foretinib] (partner 0.25 µM)
Procedure, shortened: (§1)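 Cells from lung cancer lines were seeded into 1536-well plates and, one day later, dosed by pin tool. Treatments were either a single drug or a fixed dose of an anchor drug with five library-drug doses (not always all listed) in √10 steps. After 5 days, nuclei were stained in a one-step fixation (final 0.05% Triton X-100, 1% formaldehyde, 1 ug/ml Hoechst) and counted on 4× images, and relative viability is the treated-to-vehicle nuclei ratio, as the median of duplicate plates.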

Crizotinib + Luminespib = compound: C[C@@H](Oc1cc(-c2cnn(C3CCNCC3)c2)cnc1N)c1c(Cl)ccc(F)c1Cl [Crizotinib] + CCNC(=O)c1noc(-c2cc(C(C)C)c(O)cc2O)c1-c1ccc(CN2CCOCC2)cc1 [Luminespib] (partner 0.01 µM)
Procedure, shortened: as §1

Crizotinib + Navitoclax = compound: C[C@@H](Oc1cc(-c2cnn(C3CCNCC3)c2)cnc1N)c1c(Cl)ccc(F)c1Cl [Crizotinib] + CC1(C)CCC(c2ccc(Cl)cc2)=C(CN2CCN(c3ccc(C(=O)NS(=O)(=O)c4ccc(N[C@H](CCN5CCOCC5)CSc5ccccc5)c(S(=O)(=O)C(F)(F)F)c4)cc3)CC2)C1 [Navitoclax] (partner 0.5 µM)
Procedure, shortened: as §1

Olaparib + Vorinostat = compound: O=C(c1cc(Cc2n[nH]c(=O)c3ccccc23)ccc1F)N1CCN(C(=O)C2CC2)CC1 [Olaparib] + O=C(CCCCCCC(=O)Nc1ccccc1)NO [Vorinostat] (partner 1 µM)
Procedure, shortened: as §1

| Cell Line | relative viability (Crizotinib + Foretinib; first compound 0.01 µM) | relative viability (Crizotinib + Foretinib; first compound 0.03162 µM) | relative viability (Crizotinib + Foretinib; first compound 0.1 µM) | relative viability (Crizotinib + Foretinib; first compound 0.3162 µM) | relative viability (Crizotinib + Foretinib; first compound 1 µM) | relative viability (Crizotinib + Luminespib; first compound 0.01 µM) | relative viability (Crizotinib + Luminespib; first compound 0.03162 µM) | relative viability (Crizotinib + Luminespib; first compound 0.1 µM) | relative viability (Crizotinib + Luminespib; first compound 0.3162 µM) | relative viability (Crizotinib + Luminespib; first compound 1 µM) | relative viability (Crizotinib + Navitoclax; first compound 0.01 µM) | relative viability (Crizotinib + Navitoclax; first compound 0.03162 µM) | relative viability (Crizotinib + Navitoclax; first compound 0.1 µM) | relative viability (Crizotinib + Navitoclax; first compound 0.3162 µM) | relative viability (Crizotinib + Navitoclax; first compound 1 µM) | relative viability (Olaparib + Vorinostat; first compound 0.08 µM) | relative viability (Olaparib + Vorinostat; first compound 0.253 µM) | relative viability (Olaparib + Vorinostat; first compound 2.53 µM) | relative viability (Olaparib + Vorinostat; first compound 8 µM) |
| --- | --- | --- | --- | --- | --- | --- | --- | --- | --- | --- | --- | --- | --- | --- | --- | --- | --- | --- | --- |
| NCI-H322M | 0.852 | 1.04 | 0.947 | 1.09 | 0.889 | 0.721 | 0.994 | 0.725 | 1 | 0.964 | 1.07 | 1.12 | 1.19 | 1.13 | 1.3 | 1.01 | 0.854 | 0.942 | 0.831 |
| NCI-H441 | – | 0.958 | 0.931 | – | 0.825 | 0.273 | 0.315 | 0.399 | – | 0.391 | 0.959 | 0.571 | 0.682 | – | 0.798 | 0.808 | 0.696 | 0.673 | 0.607 |
| NCI-H460 | 0.801 | 1.05 | 0.996 | 1.02 | 1.07 | 0.0237 | 0.0313 | 0.0367 | 0.0315 | 0.0386 | – | 1.03 | 1.1 | 1.2 | 1.13 | 0.778 | 0.58 | 0.378 | 0.0953 |
| NCI-H520 | 0.757 | 0.827 | 0.804 | – | 0.538 | 0.212 | 0.258 | 0.243 | 0.258 | 0.231 | 1.01 | 1.05 | 1.31 | – | 1.12 | 0.822 | 0.684 | 0.554 | 0.341 |
| NCI-H596 | 0.854 | 0.898 | 0.85 | 1.11 | 0.835 | 0.86 | 1.18 | 0.942 | 1.18 | 1.01 | 0.845 | – | – | 1 | 0.964 | 0.696 | 0.529 | 0.551 | 0.397 |
| NCI-H647 | 1.2 | 1.24 | 1.19 | 1.18 | 1.22 | 0.2 | 0.14 | 0.146 | 0.152 | 0.153 | 1.01 | 1.21 | 1.03 | – | 1.06 | 0.585 | 0.504 | 0.6 | 0.271 |
| NCI-H727 | – | 1.24 | 0.957 | – | 1.22 | – | 0.346 | 0.296 | – | 0.509 | 0.394 | 0.459 | 0.505 | 0.436 | 0.393 | 1.19 | 1.08 | 0.983 | 0.981 |
| NCI-H838 | 0.961 | 1.04 | 1.01 | 0.994 | 1.02 | 0.289 | 0.275 | 0.312 | 0.326 | 0.254 | 1.14 | 1.14 | 1.16 | 1.19 | 1.13 | 0.747 | 0.646 | 0.709 | 0.65 |
| NCI-H1355 | 0.935 | 0.81 | 0.922 | 0.916 | 0.959 | 0.709 | 0.749 | 0.644 | 0.641 | 0.783 | 0.901 | 1.02 | 0.929 | 0.923 | 0.931 | 0.683 | 0.645 | 0.638 | 0.641 |
